Measurements published in BindingDB's records for patent US11518761 (Vyera Pharmaceuticals, 2022).

Molecular target: T1, Calmodulin-domain protein kinase 1 (Toxoplasma gondii, UniProt Q9BJF5)
T1 sequence (Q9BJF5 whole entry): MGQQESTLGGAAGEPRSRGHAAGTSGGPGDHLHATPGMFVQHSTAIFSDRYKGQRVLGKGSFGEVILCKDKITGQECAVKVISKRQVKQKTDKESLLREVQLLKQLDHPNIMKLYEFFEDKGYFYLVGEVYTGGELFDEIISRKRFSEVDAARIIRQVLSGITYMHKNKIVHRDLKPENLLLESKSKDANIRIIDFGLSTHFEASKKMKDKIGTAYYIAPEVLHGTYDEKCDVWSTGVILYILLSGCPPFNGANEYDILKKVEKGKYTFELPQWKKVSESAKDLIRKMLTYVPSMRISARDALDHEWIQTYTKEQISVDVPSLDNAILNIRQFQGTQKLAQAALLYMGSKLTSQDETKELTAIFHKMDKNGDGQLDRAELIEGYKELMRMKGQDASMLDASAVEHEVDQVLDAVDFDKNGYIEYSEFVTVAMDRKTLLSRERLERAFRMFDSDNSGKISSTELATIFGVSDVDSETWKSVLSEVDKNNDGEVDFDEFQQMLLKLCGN
Assay: Inhibition Assay
Procedure: Certain of the compounds prepared as described above were assayed to determine their IC50 for inhibition of T. gondii CDPK1 (tgCDPK1). At least three independent replicates of the assay were conducted for each compound tested.

Row | SMILES | IC50
1 | N#Cc1cccc(Oc2nn([C@H]3C[C@H](O)C3)c3ncnc(N)c23)c1 [US11518761, Example 178] | 79.6 nM
2 | N#Cc1cccc(Oc2nn([C@H]3C[C@H](F)C3)c3ncnc(N)c23)c1 [US11518761, Example 173] | 49.8 nM
